Test results: PubChem BioAssay (NCI)
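Test compounds were applied to cells in 96-well plates for 48 hours at 5 doses. TGI is the concentration that stops growth completely.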

Key:
Assay in all cases: NCI tumour cell line growth inhibition, 48 h
UO-31 renal = tested on: UO-31 renal
DMS 114 small cell lung = tested on: DMS 114 small cell lung
DLD-1 colon = tested on: DLD-1 colon
K-562 leukemia = tested on: K-562 leukemia
SF-268 CNS = tested on: SF-268 CNS
NCI-H226 lung = tested on: NCI-H226 lung
HCT-15 colon = tested on: HCT-15 colon
UACC-257 melanoma = tested on: UACC-257 melanoma
HL-60(TB) leukemia = tested on: HL-60(TB) leukemia
SK-MEL-2 melanoma = tested on: SK-MEL-2 melanoma
U251 CNS = tested on: U251 CNS
SN12C renal = tested on: SN12C renal
HOP-62 NSCLC = tested on: HOP-62 NSCLC
LOX IMVI melanoma = tested on: LOX IMVI melanoma
A498 renal = tested on: A498 renal
SK-MEL-28 melanoma = tested on: SK-MEL-28 melanoma
KM20L2 colon = tested on: KM20L2 colon
HOP-18 NSCLC = tested on: HOP-18 NSCLC
SK-OV-3 ovarian = tested on: SK-OV-3 ovarian
CCRF-CEM leukemia = tested on: CCRF-CEM leukemia
M19-MEL melanoma = tested on: M19-MEL melanoma
EKVX NSCLC = tested on: EKVX NSCLC
SW-620 colon = tested on: SW-620 colon
MALME-3M melanoma = tested on: MALME-3M melanoma
SF-295 CNS = tested on: SF-295 CNS
SNB-78 CNS = tested on: SNB-78 CNS
M14 melanoma = tested on: M14 melanoma
HT29 colon = tested on: HT29 colon
A549 NSCLC = tested on: A549 NSCLC
SF-539 CNS = tested on: SF-539 CNS
SNB-19 CNS = tested on: SNB-19 CNS
NCI-H460 lung = tested on: NCI-H460 lung
OVCAR-5 ovarian = tested on: OVCAR-5 ovarian
COLO 205 colon = tested on: COLO 205 colon
HCT-116 colon = tested on: HCT-116 colon
XF 498 CNS = tested on: XF 498 CNS
ACHN renal = tested on: ACHN renal
RPMI-8226 leukemia = tested on: RPMI-8226 leukemia
786-0 renal = tested on: 786-0 renal
OVCAR-4 ovarian = tested on: OVCAR-4 ovarian
LXFL 529 NSCLC = tested on: LXFL 529 NSCLC
OVCAR-3 ovarian = tested on: OVCAR-3 ovarian
OVCAR-8 ovarian = tested on: OVCAR-8 ovarian
RXF 393 renal = tested on: RXF 393 renal
KM12 colon = tested on: KM12 colon
TK-10 renal = tested on: TK-10 renal
NCI-H23 lung = tested on: NCI-H23 lung
SNB-75 CNS = tested on: SNB-75 CNS
HOP-92 NSCLC = tested on: HOP-92 NSCLC
IGROV1 ovarian = tested on: IGROV1 ovarian
MOLT-4 leukemia = tested on: MOLT-4 leukemia
CAKI-1 renal = tested on: CAKI-1 renal
SK-MEL-5 melanoma = tested on: SK-MEL-5 melanoma
HCC-2998 colon = tested on: HCC-2998 colon
RXF-631 renal = tested on: RXF-631 renal
UACC-62 melanoma = tested on: UACC-62 melanoma
NCI-H522 lung = tested on: NCI-H522 lung
DMS 273 small cell lung = tested on: DMS 273 small cell lung

## N#CC(C(=O)/C(=N/NC(=O)c1ccccc1O)C(C#N)c1ccc(Cl)cc1)c1ccc(Cl)cc1 (stereo not drawn)
UO-31 renal
  TGI: 30.9 µM
DMS 114 small cell lung
  TGI: 69.7 µM
DLD-1 colon
  TGI: 33 µM
K-562 leukemia
  TGI: 79.1 µM
SF-268 CNS
  TGI: 32.2 µM
NCI-H226 lung
  TGI: 31.8 µM
HCT-15 colon
  TGI: 37.7 µM
UACC-257 melanoma
  TGI: 27.7 µM
HL-60(TB) leukemia
  TGI: 53.1 µM
SK-MEL-2 melanoma
  TGI: 30.1 µM
U251 CNS
  TGI: 22.5 µM
SN12C renal
  TGI: 26.4 µM
HOP-62 NSCLC
  TGI: 38.7 µM
LOX IMVI melanoma
  TGI: 27.3 µM
A498 renal
  TGI: 25.5 µM
SK-MEL-28 melanoma
  TGI: 27.7 µM
KM20L2 colon
  TGI: 27.2 µM
HOP-18 NSCLC
  TGI: 23.6 µM
SK-OV-3 ovarian
  TGI: 90.5 µM
CCRF-CEM leukemia
  TGI: > 100 µM
M19-MEL melanoma
  TGI: 55.3 µM
EKVX NSCLC
  TGI: 36.9 µM
SW-620 colon
  TGI: 29.1 µM
MALME-3M melanoma
  TGI: 25.5 µM
SF-295 CNS
  TGI: 29.9 µM
SNB-78 CNS
  TGI: > 100 µM
M14 melanoma
  TGI: 38.8 µM
HT29 colon
  TGI: 24.6 µM
A549 NSCLC
  TGI: 72.8 µM
SF-539 CNS
  TGI: 31.3 µM
SNB-19 CNS
  TGI: 30.2 µM
NCI-H460 lung
  TGI: 29.7 µM
OVCAR-5 ovarian
  TGI: 34.3 µM
COLO 205 colon
  TGI: 86.5 µM
HCT-116 colon
  TGI: 40.2 µM
XF 498 CNS
  TGI: 26.3 µM
ACHN renal
  TGI: 29.6 µM
RPMI-8226 leukemia
  TGI: 53 µM
786-0 renal
  TGI: 29.9 µM
OVCAR-4 ovarian
  TGI: 33.9 µM
LXFL 529 NSCLC
  TGI: 25.1 µM
OVCAR-3 ovarian
  TGI: 35.5 µM
OVCAR-8 ovarian
  TGI: 26.3 µM
RXF 393 renal
  TGI: 16.4 µM
KM12 colon
  TGI: 30 µM
TK-10 renal
  TGI: 31.3 µM
NCI-H23 lung
  TGI: 23.7 µM

## CC1=NCCc2c1[nH]c1cc(O)ccc21
UO-31 renal
  TGI: > 100 µM
DMS 114 small cell lung
  TGI: > 100 µM
DLD-1 colon
  TGI: > 100 µM
K-562 leukemia
  TGI: > 100 µM
SNB-75 CNS
  TGI: > 100 µM
SF-268 CNS
  TGI: > 100 µM
HOP-92 NSCLC
  TGI: > 100 µM
NCI-H226 lung
  TGI: > 100 µM
HCT-15 colon
  TGI: > 100 µM
IGROV1 ovarian
  TGI: > 100 µM
UACC-257 melanoma
  TGI: > 100 µM
HL-60(TB) leukemia
  TGI: > 100 µM
SK-MEL-2 melanoma
  TGI: > 100 µM
MOLT-4 leukemia
  TGI: > 100 µM
SN12C renal
  TGI: > 100 µM
HOP-62 NSCLC
  TGI: > 100 µM
CAKI-1 renal
  TGI: > 100 µM
LOX IMVI melanoma
  TGI: > 100 µM
A498 renal
  TGI: > 100 µM
SK-MEL-28 melanoma
  TGI: > 100 µM
KM20L2 colon
  TGI: > 100 µM
HOP-18 NSCLC
  TGI: > 100 µM
SK-MEL-5 melanoma
  TGI: > 100 µM
SK-OV-3 ovarian
  TGI: > 100 µM
CCRF-CEM leukemia
  TGI: > 100 µM
M19-MEL melanoma
  TGI: > 100 µM
EKVX NSCLC
  TGI: > 100 µM
SW-620 colon
  TGI: > 100 µM
MALME-3M melanoma
  TGI: > 100 µM
SF-295 CNS
  TGI: > 100 µM
SNB-78 CNS
  TGI: > 100 µM
M14 melanoma
  TGI: > 100 µM
HT29 colon
  TGI: > 100 µM
A549 NSCLC
  TGI: > 100 µM
SF-539 CNS
  TGI: > 100 µM
SNB-19 CNS
  TGI: > 100 µM
NCI-H460 lung
  TGI: > 100 µM
OVCAR-5 ovarian
  TGI: > 100 µM
HCC-2998 colon
  TGI: > 100 µM
COLO 205 colon
  TGI: > 100 µM
HCT-116 colon
  TGI: > 100 µM
XF 498 CNS
  TGI: > 100 µM
RXF-631 renal
  TGI: > 100 µM
ACHN renal
  TGI: > 100 µM
RPMI-8226 leukemia
  TGI: > 100 µM
UACC-62 melanoma
  TGI: > 100 µM
786-0 renal
  TGI: > 100 µM
OVCAR-4 ovarian
  TGI: > 100 µM
LXFL 529 NSCLC
  TGI: > 100 µM
OVCAR-3 ovarian
  TGI: > 100 µM
OVCAR-8 ovarian
  TGI: > 100 µM
RXF 393 renal
  TGI: > 100 µM
KM12 colon
  TGI: > 100 µM
TK-10 renal
  TGI: > 100 µM
NCI-H23 lung
  TGI: > 100 µM

## CCC(=O)OC[n+]1ccc2c(C)c3[nH]c4ccc(OC)cc4c3c(C)c2c1
DLD-1 colon
  TGI: 1.26 µM
K-562 leukemia
  TGI: 23.9 µM
IGROV1 ovarian
  TGI: 1.03 µM
HL-60(TB) leukemia
  TGI: 8.38 µM
HOP-18 NSCLC
  TGI: 0.131 µM
CCRF-CEM leukemia
  TGI: > 100 µM
M19-MEL melanoma
  TGI: 1.68 µM
MALME-3M melanoma
  TGI: 2.71 µM
HT29 colon
  TGI: 1.57 µM
OVCAR-5 ovarian
  TGI: 1.75 µM
HCT-116 colon
  TGI: 1.13 µM
ACHN renal
  TGI: 3.76 µM
RPMI-8226 leukemia
  TGI: 2.54 µM
786-0 renal
  TGI: 1.73 µM
LXFL 529 NSCLC
  TGI: 1.57 µM
TK-10 renal
  TGI: 2.92 µM

## CNS(=O)(=O)NN(C)S(=O)(=O)c1ccc(F)cc1
UO-31 renal
  TGI: > 100 µM
NCI-H522 lung
  TGI: > 100 µM
DMS 114 small cell lung
  TGI: > 100 µM
DLD-1 colon
  TGI: > 100 µM
K-562 leukemia
  TGI: > 100 µM
SNB-75 CNS
  TGI: > 100 µM
SF-268 CNS
  TGI: > 100 µM
HOP-92 NSCLC
  TGI: > 100 µM
NCI-H226 lung
  TGI: > 100 µM
HCT-15 colon
  TGI: > 100 µM
IGROV1 ovarian
  TGI: > 100 µM
UACC-257 melanoma
  TGI: > 100 µM
HL-60(TB) leukemia
  TGI: > 100 µM
SK-MEL-2 melanoma
  TGI: > 100 µM
MOLT-4 leukemia
  TGI: > 100 µM
U251 CNS
  TGI: > 100 µM
SN12C renal
  TGI: > 100 µM
HOP-62 NSCLC
  TGI: > 100 µM
CAKI-1 renal
  TGI: > 100 µM
LOX IMVI melanoma
  TGI: > 100 µM
A498 renal
  TGI: > 100 µM
SK-MEL-28 melanoma
  TGI: > 100 µM
KM20L2 colon
  TGI: > 100 µM
HOP-18 NSCLC
  TGI: > 100 µM
SK-MEL-5 melanoma
  TGI: > 100 µM
SK-OV-3 ovarian
  TGI: > 100 µM
CCRF-CEM leukemia
  TGI: > 100 µM
EKVX NSCLC
  TGI: > 100 µM
SW-620 colon
  TGI: > 100 µM
MALME-3M melanoma
  TGI: > 100 µM
SF-295 CNS
  TGI: > 100 µM
M14 melanoma
  TGI: > 100 µM
HT29 colon
  TGI: > 100 µM
A549 NSCLC
  TGI: > 100 µM
SF-539 CNS
  TGI: > 100 µM
DMS 273 small cell lung
  TGI: > 100 µM
SNB-19 CNS
  TGI: > 100 µM
NCI-H460 lung
  TGI: > 100 µM
OVCAR-5 ovarian
  TGI: > 100 µM
HCC-2998 colon
  TGI: > 100 µM
COLO 205 colon
  TGI: > 100 µM
HCT-116 colon
  TGI: > 100 µM
XF 498 CNS
  TGI: > 100 µM
ACHN renal
  TGI: > 100 µM
RPMI-8226 leukemia
  TGI: > 100 µM
UACC-62 melanoma
  TGI: > 100 µM
786-0 renal
  TGI: > 100 µM
OVCAR-4 ovarian
  TGI: > 100 µM
LXFL 529 NSCLC
  TGI: > 100 µM
OVCAR-3 ovarian
  TGI: > 100 µM
OVCAR-8 ovarian
  TGI: > 100 µM
RXF 393 renal
  TGI: > 100 µM
KM12 colon
  TGI: > 100 µM
TK-10 renal
  TGI: > 100 µM
NCI-H23 lung
  TGI: > 100 µM
